Data taken from the supplement of paper PMC11451515.

Test system: NOMO1
Test: cell viability relative to DMSO control; higher = less cytotoxic
Details: 48 h
Procedure, shortened: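 NOMO1 or SEM (500 cells/well) or P12-Ichikawa (1000 cells/well) leukemia cells were adapted for at least four passages in each medium. They were seeded in 1536-well plates (5 μl) and pin-dosed with library compounds in DMSO over an 11-point threefold series, 47 μM to 0.79 nM. CellTiter-Glo One luminescence was read after 48 h at 37°C. Viability is the per-plate percentage relative to DMSO wells, with cell-free wells as background.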

[1] = HPLM + 10% dialyzed FBS, 0.000781 µM
[2] = HPLM + 10% dialyzed FBS, 0.00234 µM
[3] = HPLM + 10% dialyzed FBS, 0.00702 µM
[4] = HPLM + 10% dialyzed FBS, 0.0211 µM
[5] = HPLM + 10% dialyzed FBS, 0.0632 µM
[6] = HPLM + 10% dialyzed FBS, 0.19 µM
[7] = HPLM + 10% dialyzed FBS, 0.569 µM
[8] = HPLM + 10% dialyzed FBS, 1.71 µM
[9] = HPLM + 10% dialyzed FBS, 5.12 µM
[10] = HPLM + 10% dialyzed FBS, 15.4 µM
[11] = HPLM + 10% dialyzed FBS, 46.1 µM
[12] = RPMI 5 mM glucose + 10% FBS, 0.000781 µM
[13] = RPMI 5 mM glucose + 10% FBS, 0.00234 µM
[14] = RPMI 5 mM glucose + 10% FBS, 0.00702 µM
[15] = RPMI 5 mM glucose + 10% FBS, 0.0211 µM
[16] = RPMI 5 mM glucose + 10% FBS, 0.0632 µM
[17] = RPMI 5 mM glucose + 10% FBS, 0.19 µM
[18] = RPMI 5 mM glucose + 10% FBS, 0.569 µM
[19] = RPMI 5 mM glucose + 10% FBS, 1.71 µM
[20] = RPMI 5 mM glucose + 10% FBS, 5.12 µM
[21] = RPMI 5 mM glucose + 10% FBS, 15.4 µM
[22] = RPMI 5 mM glucose + 10% FBS, 46.1 µM
[23] = RPMI 5 mM glucose + 10% dialyzed FBS, 0.000781 µM
[24] = RPMI 5 mM glucose + 10% dialyzed FBS, 0.00234 µM
[25] = RPMI 5 mM glucose + 10% dialyzed FBS, 0.00702 µM
[26] = RPMI 5 mM glucose + 10% dialyzed FBS, 0.0211 µM
[27] = RPMI 5 mM glucose + 10% dialyzed FBS, 0.0632 µM
[28] = RPMI 5 mM glucose + 10% dialyzed FBS, 0.19 µM
[29] = RPMI 5 mM glucose + 10% dialyzed FBS, 0.569 µM
[30] = RPMI 5 mM glucose + 10% dialyzed FBS, 1.71 µM
[31] = RPMI 5 mM glucose + 10% dialyzed FBS, 5.12 µM
[32] = RPMI 5 mM glucose + 10% dialyzed FBS, 15.4 µM
[33] = RPMI 5 mM glucose + 10% dialyzed FBS, 46.1 µM

Molecule O=C(O)C1(Cc2cccc(Nc3nccs3)n2)CCC(Oc2cccc(Cl)c2F)CC1 (stereo not drawn) has a cell viability [1] of 98.9%, a cell viability [2] of 116% and a cell viability [3] of 117%. The cell viability [4] was 108%, the cell viability [5] was 104% and the cell viability [6] was 116%. It also gave a cell viability [7] of 120%, a cell viability [8] of 69.6% and a cell viability [9] of 45.3%. The cell viability [10] was 34.2%, the cell viability [11] was 35.5% and the cell viability [12] was 110%. It also gave a cell viability [13] of 96.2%, a cell viability [14] of 99.5% and a cell viability [15] of 91.9%. The cell viability [16] was 106%, the cell viability [17] was 102% and the cell viability [18] was 96.9%. The cell viability [19] was 74.1%, the cell viability [20] was 43.7% and the cell viability [21] was 31.8%. The cell viability [22] was 23.2%, the cell viability [23] was 107% and the cell viability [24] was 104%. The cell viability [25] was 98.8%, the cell viability [26] was 104% and the cell viability [27] was 105%. For the same molecule, the cell viability [28] was 105%, the cell viability [29] was 102% and the cell viability [30] was 72%. It also gave a cell viability [31] of 50.4%, a cell viability [32] of 34.4% and a cell viability [33] of 34%.

NNCCc1ccccc1 showed a cell viability [1] of 109%, a cell viability [2] of 133% and a cell viability [3] of 119%. It also gave a cell viability [4] of 131%, a cell viability [5] of 112% and a cell viability [6] of 115%. It also gave a cell viability [7] of 108%, a cell viability [8] of 118% and a cell viability [9] of 111%. For the same molecule, the cell viability [10] was 60%, the cell viability [11] was 30.4% and the cell viability [12] was 117%. For the same molecule, the cell viability [13] was 132%, the cell viability [14] was 122% and the cell viability [15] was 117%. It also gave a cell viability [16] of 124%, a cell viability [17] of 117% and a cell viability [18] of 115%. For the same molecule, the cell viability [19] was 114%, the cell viability [20] was 114% and the cell viability [21] was 103%. It also gave a cell viability [22] of 21.2%, a cell viability [23] of 116% and a cell viability [24] of 116%. It also gave a cell viability [25] of 129%, a cell viability [26] of 107% and a cell viability [27] of 125%. For the same molecule, the cell viability [28] was 121%, the cell viability [29] was 122% and the cell viability [30] was 109%. The cell viability [31] was 109%, the cell viability [32] was 114% and the cell viability [33] was 75%.

CNC(=O)c1ccc(N2C(=S)N(c3cnc(C#N)c(C(F)(F)F)c3)C(=O)C23CCC3)cc1F gave a cell viability [1] of 79.6%, a cell viability [2] of 114% and a cell viability [3] of 103%. It also gave a cell viability [4] of 115%, a cell viability [5] of 110% and a cell viability [6] of 116%. It also gave a cell viability [7] of 102%, a cell viability [8] of 89.8% and a cell viability [9] of 69.7%. For the same molecule, the cell viability [10] was 64.8%, the cell viability [11] was 50.2% and the cell viability [12] was 84.9%. The cell viability [13] was 113%, the cell viability [14] was 111% and the cell viability [15] was 104%. It also gave a cell viability [16] of 105%, a cell viability [17] of 111% and a cell viability [18] of 96.3%. The cell viability [19] was 83.4%, the cell viability [20] was 79% and the cell viability [21] was 73.2%. The cell viability [22] was 60.2%, the cell viability [23] was 88% and the cell viability [24] was 109%. The cell viability [25] was 107%, the cell viability [26] was 104% and the cell viability [27] was 99.1%. For the same molecule, the cell viability [28] was 121%, the cell viability [29] was 123% and the cell viability [30] was 104%. It also gave a cell viability [31] of 73.3%, a cell viability [32] of 74% and a cell viability [33] of 74.2%.

With CCc1ccc(CCOc2ccc(CC3SC(=O)NC3=O)cc2)nc1 (stereo not drawn) the cell viability [1] was 125%, the cell viability [2] was 106% and the cell viability [3] was 119%. The cell viability [4] was 134%, the cell viability [5] was 130% and the cell viability [6] was 113%. The cell viability [7] was 111%, the cell viability [8] was 112% and the cell viability [9] was 96.7%. For the same molecule, the cell viability [10] was 114%, the cell viability [11] was 106% and the cell viability [12] was 112%. It also gave a cell viability [13] of 123%, a cell viability [14] of 129% and a cell viability [15] of 120%. For the same molecule, the cell viability [16] was 107%, the cell viability [17] was 112% and the cell viability [18] was 99%. It also gave a cell viability [19] of 121%, a cell viability [20] of 106% and a cell viability [21] of 107%. The cell viability [22] was 106%.

CC1=C(C)C(=O)C(C(CCCCCC(=O)O)c2ccccc2)=C(C)C1=O (stereo not drawn) was tested, and the cell viability [1] was 75.8%, the cell viability [2] was 78.1% and the cell viability [3] was 83.4%. For the same molecule, the cell viability [4] was 93.9%, the cell viability [5] was 93.6% and the cell viability [6] was 109%. It also gave a cell viability [7] of 53.4%, a cell viability [8] of 97.9% and a cell viability [9] of 27.8%. The cell viability [10] was 27.1%, the cell viability [11] was 13.5% and the cell viability [12] was 68%. For the same molecule, the cell viability [13] was 82.7%, the cell viability [14] was 70.7% and the cell viability [15] was 74.7%. For the same molecule, the cell viability [16] was 74.9%, the cell viability [17] was 79.3% and the cell viability [18] was 76.1%. It also gave a cell viability [19] of 80.4%, a cell viability [20] of 19.6% and a cell viability [21] of 22.3%. It also gave a cell viability [22] of 12.5%, a cell viability [23] of 75.6% and a cell viability [24] of 78.9%. It also gave a cell viability [25] of 75%, a cell viability [26] of 87.7% and a cell viability [27] of 83.7%. It also gave a cell viability [28] of 84.2%, a cell viability [29] of 86.4% and a cell viability [30] of 78%. It also gave a cell viability [31] of 25.1%, a cell viability [32] of 27.4% and a cell viability [33] of 15%.

CCN1CCN(CC1)CC(=O)NC2=CC=C(C3=C2C4=C(S3)C=CC=C4)C5=C6O\C(=C/C(=O)C6=CC=C5)N7CCOCC7 gave a cell viability [1] of 108%, a cell viability [2] of 121% and a cell viability [3] of 122%. The cell viability [4] was 123%, the cell viability [5] was 117% and the cell viability [6] was 124%. It also gave a cell viability [7] of 121%, a cell viability [8] of 94.2% and a cell viability [9] of 79.7%. For the same molecule, the cell viability [10] was 63.6%, the cell viability [11] was 75.3% and the cell viability [12] was 116%. It also gave a cell viability [13] of 115%, a cell viability [14] of 123% and a cell viability [15] of 120%. For the same molecule, the cell viability [16] was 128%, the cell viability [17] was 129% and the cell viability [18] was 130%. The cell viability [19] was 120%, the cell viability [20] was 98% and the cell viability [21] was 74.5%. The cell viability [22] was 86.1%, the cell viability [23] was 120% and the cell viability [24] was 120%. The cell viability [25] was 131%, the cell viability [26] was 118% and the cell viability [27] was 128%. The cell viability [28] was 128%, the cell viability [29] was 109% and the cell viability [30] was 110%. The cell viability [31] was 77.8%, the cell viability [32] was 64.3% and the cell viability [33] was 99.1%.

In the case of N#CCNC(=O)c1ccc(-c2ccnc(Nc3ccc(N4CCOCC4)cc3)n2)cc1, the cell viability [1] is reported as 109%, the cell viability [2] is reported as 115% and the cell viability [3] is reported as 116%. It also gave a cell viability [4] of 134%, a cell viability [5] of 128% and a cell viability [6] of 117%. For the same molecule, the cell viability [7] was 115%, the cell viability [8] was 105% and the cell viability [9] was 124%. For the same molecule, the cell viability [10] was 87.3%, the cell viability [11] was 8.36% and the cell viability [12] was 88.7%. The cell viability [13] was 116%, the cell viability [14] was 101% and the cell viability [15] was 113%. For the same molecule, the cell viability [16] was 107%, the cell viability [17] was 106% and the cell viability [18] was 106%. The cell viability [19] was 89.5%, the cell viability [20] was 102% and the cell viability [21] was 86%. It also gave a cell viability [22] of 11.3%, a cell viability [23] of 48.6% and a cell viability [24] of 105%. The cell viability [25] was 129%, the cell viability [26] was 113% and the cell viability [27] was 120%. The cell viability [28] was 110%, the cell viability [29] was 99.7% and the cell viability [30] was 90.8%. It also gave a cell viability [31] of 114%, a cell viability [32] of 85.6% and a cell viability [33] of 10.8%.

Work on CC1(C)O[C@@H]2C[C@H]3[C@@H]4C[C@H](F)C5=CC(=O)C=C[C@]5(C)[C@@]4(F)[C@@H](O)C[C@]3(C)[C@]2(C(=O)CO)O1 yielded a cell viability [1] of 105%, a cell viability [2] of 112% and a cell viability [3] of 121%. It also gave a cell viability [4] of 122%, a cell viability [5] of 121% and a cell viability [6] of 101%. It also gave a cell viability [7] of 101%, a cell viability [8] of 118% and a cell viability [9] of 112%. For the same molecule, the cell viability [10] was 108%, the cell viability [11] was 94% and the cell viability [12] was 115%. For the same molecule, the cell viability [13] was 101%, the cell viability [14] was 108% and the cell viability [15] was 108%. The cell viability [16] was 112%, the cell viability [17] was 114% and the cell viability [18] was 106%. For the same molecule, the cell viability [19] was 102%, the cell viability [20] was 104% and the cell viability [21] was 97.9%. For the same molecule, the cell viability [22] was 91.7%, the cell viability [23] was 109% and the cell viability [24] was 109%. It also gave a cell viability [25] of 98.3%, a cell viability [26] of 114% and a cell viability [27] of 112%. For the same molecule, the cell viability [28] was 102%, the cell viability [29] was 96.7% and the cell viability [30] was 102%. For the same molecule, the cell viability [31] was 110%, the cell viability [32] was 97.8% and the cell viability [33] was 86.5%.
